This assay deals with SARS-CoV-2-derived S protein, Delta strain. Format: cell-based. The note with it: Table 12.

Structures are written as SMILES. Starred links: 1 amine or outer side, 2 acyl side, 3 side chain; linkers in the order of their positions; H or OH if unused. Positions of bridges follow the written chain, without caps; N, C: chain ends. Non-standard residues stand in square brackets, D forms with d. Residues, ends and D or L forms follow the SMILES beside them. ξ: configuration not given here. Ala(piperidin-4-yl) = O=C([C@H](CC1CCN([*:3])CC1)N[*:1])[*:2]; Ala(indan-2-yl) = N[C@@H](CC1Cc2ccccc2C1)C(=O)O; Phe(4-COOH) = N[C@@H](Cc1ccc(C(=O)O)cc1)C(=O)O; X3 = O=C(O)CN1CCC(N[*:1])(C(=O)[*:2])CC1; Phe(4-F) = N[C@@H](Cc1ccc(F)cc1)C(=O)O; 3Pal = N[C@@H](Cc1cccnc1)C(=O)O; NMeE = CN[C@@H](CCC(=O)O)C(=O)O; dNMeE = CN[C@H](CCC(=O)O)C(=O)O; Cha = N[C@@H](CC1CCCCC1)C(=O)O; Cit = NC(=O)NCCC[C@H](N)C(=O)O; dNMeD = CN[C@H](CC(=O)O)C(=O)O; NMeNle = CCCC[C@H](NC)C(=O)O; ξαMeS = CC(N)(CO)C(=O)O; Aib = CC(C)(N)C(=O)O; Sar = CNCC(=O)O

For the compound `CCCC[C@H]1C(=O)NC(C)(C)C(=O)N[C@@H](CC2CCCCC2)C(=O)N[C@@H](Cc2ccc(F)cc2)C(=O)NC2(CCN(CC(=O)O)CC2)C(=O)N[C@@H](Cc2ccc(O)cc2)C(=O)N[C@@H](Cc2ccc(O)cc2)C(=O)N[C@@H](Cc2ccc(C(=O)O)cc2)C(=O)N[C@@H](CC2CCNCC2)C(=O)N[C@@H](CC2CCCCC2)C(=O)N[C@H](C(=O)N[C@H](CCC(=O)O)C(N)=O)CSCC(=O)N(C)[C@@H](CCC(=O)O)C(=O)N1C` [Peptide 5555_p173] ({CH2CO}-[NMeE][NMeNle][Aib][Cha][Phe(4-F)][X3]YY[Phe(4-COOH)][Ala(piperidin-4-yl)][Cha]C[dE]-NH2; thioether N-12), the IC50 was found to be 0.6 nM and the “Imax: % (at 500 nM)” value worked out at 100%.

With `CCCC[C@H]1C(=O)NC(C)(C)C(=O)N[C@@H](CC2CCCCC2)C(=O)N[C@@H](Cc2ccc(F)cc2)C(=O)N(C)[C@H](CC(=O)O)C(=O)N[C@@H](Cc2ccc(O)cc2)C(=O)N[C@@H](Cc2ccc(O)cc2)C(=O)N[C@@H](Cc2ccc(C(=O)O)cc2)C(=O)N[C@@H](CC2CCNCC2)C(=O)N[C@@H](CC2CCCCC2)C(=O)N[C@H](C(=O)N[C@H](CCC(=O)O)C(N)=O)CSCC(=O)N(C)[C@@H](CCC(=O)O)C(=O)N1C` [Peptide 5555_p176] ({CH2CO}-[NMeE][NMeNle][Aib][Cha][Phe(4-F)][dNMeD]YY[Phe(4-COOH)][Ala(piperidin-4-yl)][Cha]C[dE]-NH2; thioether N-12), the IC50 was found to be 0.6 nM and the “Imax: % (at 500 nM)” value worked out at 100%.

Consider `CCCC[C@H]1C(=O)NC(C)(C)C(=O)N[C@@H](CC2CCCCC2)C(=O)N[C@@H](Cc2ccc(F)cc2)C(=O)N[C@H](CC(=O)O)C(=O)N[C@@H](Cc2ccc(O)cc2)C(=O)N[C@@H](Cc2ccc(O)cc2)C(=O)N[C@@H](CCCNC(N)=O)C(=O)N[C@H](CCCCN)C(=O)N[C@@H](CC2CCCCC2)C(=O)N[C@H](C(=O)N[C@H](CCC(=O)O)C(N)=O)CSCC(=O)N[C@@H](Cc2cccnc2)C(=O)N1C` [Peptide 5555_p177] ({CH2CO}-[3Pal][NMeNle][Aib][Cha][Phe(4-F)][dD]YY[Cit][dK][Cha]C[dE]-NH2; thioether N-12), for which 2.8 nM corresponded to half-maximal inhibition (IC50) and the “Imax: % (at 500 nM)” value was 97%.

In the case of `CCCC[C@H]1C(=O)NC(C)(C)C(=O)N[C@@H](CC2Cc3ccccc3C2)C(=O)N[C@@H](Cc2ccc(F)cc2)C(=O)N[C@H](CC(=O)O)C(=O)N[C@@H](Cc2ccc(O)cc2)C(=O)N[C@@H](Cc2ccc(O)cc2)C(=O)N[C@@H](CCCNC(N)=O)C(=O)N[C@H](CCCCN)C(=O)N[C@@H](CC2CCCCC2)C(=O)N[C@H](C(=O)N[C@H](CCC(=O)O)C(N)=O)CSCC(=O)N[C@@H](Cc2cccnc2)C(=O)N1C` [Peptide 5555_p178] ({CH2CO}-[3Pal][NMeNle][Aib][Ala(indan-2-yl)][Phe(4-F)][dD]YY[Cit][dK][Cha]C[dE]-NH2; thioether N-12), the IC50 amounted to 1.9 nM and the “Imax: % (at 500 nM)” value worked out at 100%.

Take `CCCC[C@H]1C(=O)NC(C)(C)C(=O)N[C@@H](CC2CCCCC2)C(=O)N[C@@H](Cc2ccc(F)cc2)C(=O)N2CCC[C@H]2C(=O)N[C@@H](Cc2ccc(O)cc2)C(=O)N[C@@H](Cc2ccc(O)cc2)C(=O)N[C@@H](CCCNC(N)=O)C(=O)N[C@H](CCCCN)C(=O)N[C@@H](CC2CCCCC2)C(=O)N[C@H](C(=O)N[C@H](CCC(=O)O)C(N)=O)CSCC(=O)N(C)[C@@H](CCC(=O)O)C(=O)N1C` [Peptide 5555_p188] ({CH2CO}-[NMeE][NMeNle][Aib][Cha][Phe(4-F)]PYY[Cit][dK][Cha]C[dE]-NH2; thioether N-12): the IC50 came to 0.4 nM and the “Imax: % (at 500 nM)” value came out at 101%.

With `CCCC[C@H]1C(=O)NC(C)(C)C(=O)N[C@@H](CC2CCCCC2)C(=O)N[C@@H](Cc2ccc(F)cc2)C(=O)N(C)[C@H](CCC(=O)O)C(=O)N[C@@H](Cc2ccc(O)cc2)C(=O)N[C@@H](Cc2ccc(O)cc2)C(=O)N[C@@H](Cc2ccc(C(=O)O)cc2)C(=O)N[C@@H](CC2CCNCC2)C(=O)N[C@@H](CC2CCCCC2)C(=O)N[C@H](C(=O)N[C@H](CCC(=O)O)C(N)=O)CSCC(=O)N[C@@H](Cc2cccnc2)C(=O)N1C` [Peptide 5555_p192] ({CH2CO}-[3Pal][NMeNle][Aib][Cha][Phe(4-F)][dNMeE]YY[Phe(4-COOH)][Ala(piperidin-4-yl)][Cha]C[dE]-NH2; thioether N-12), the midpoint of inhibition, the IC50, lay at 2.5 nM and the “Imax: % (at 500 nM)” value came out at 102%.

On to `CCCC[C@H]1C(=O)NC(C)(C)C(=O)N[C@@H](CC2CCCCC2)C(=O)N[C@@H](Cc2ccc(F)cc2)C(=O)N[C@H](CC(=O)O)C(=O)N[C@@H](Cc2ccc(O)cc2)C(=O)N[C@@H](Cc2ccc(O)cc2)C(=O)N[C@@H](Cc2ccc(C(=O)O)cc2)C(=O)N[C@@H](CC2CCNCC2)C(=O)N[C@@H](CC2CCCCC2)C(=O)N[C@H](C(=O)N[C@H](CCC(=O)O)C(N)=O)CSCC(=O)N[C@@H](Cc2cccnc2)C(=O)N1C` [Peptide 5555_p195] ({CH2CO}-[3Pal][NMeNle][Aib][Cha][Phe(4-F)][dD]YY[Phe(4-COOH)][Ala(piperidin-4-yl)][Cha]C[dE]-NH2; thioether N-12), for which the IC50 came to 2.3 nM and the “Imax: % (at 500 nM)” value came to 101%.

For `CCCC[C@H]1C(=O)NC(C)(C)C(=O)N[C@@H](CC2Cc3ccccc3C2)C(=O)N[C@@H](Cc2ccc(F)cc2)C(=O)NC2(CCN(CC(=O)O)CC2)C(=O)N[C@@H](Cc2ccc(O)cc2)C(=O)N[C@@H](Cc2ccc(O)cc2)C(=O)N[C@@H](Cc2ccc(C(=O)O)cc2)C(=O)N[C@@H](CC2CCNCC2)C(=O)N[C@@H](CC2CCCCC2)C(=O)N[C@H](C(=O)N[C@H](CCC(=O)O)C(N)=O)CSCC(=O)N(C)[C@@H](CCC(=O)O)C(=O)N1C` [Peptide 5555_p196] ({CH2CO}-[NMeE][NMeNle][Aib][Ala(indan-2-yl)][Phe(4-F)][X3]YY[Phe(4-COOH)][Ala(piperidin-4-yl)][Cha]C[dE]-NH2; thioether N-12), the IC50 was determined as 0.8 nM and the “Imax: % (at 500 nM)” value amounted to 101%.

With `CCCC[C@H]1C(=O)NC(C)(C)C(=O)N[C@@H](CC2Cc3ccccc3C2)C(=O)N[C@@H](Cc2ccc(F)cc2)C(=O)NC(C)(CO)C(=O)N[C@@H](Cc2ccc(O)cc2)C(=O)N[C@@H](Cc2ccc(O)cc2)C(=O)N[C@@H](Cc2ccc(C(=O)O)cc2)C(=O)N[C@@H](CC2CCNCC2)C(=O)N[C@@H](CC2CCCCC2)C(=O)N[C@H](C(=O)N[C@H](CCC(=O)O)C(N)=O)CSCC(=O)N(C)[C@@H](CCC(=O)O)C(=O)N1C` (stereo partly shown) [Peptide 5555_p197] ({CH2CO}-[NMeE][NMeNle][Aib][Ala(indan-2-yl)][Phe(4-F)][ξαMeS]YY[Phe(4-COOH)][Ala(piperidin-4-yl)][Cha]C[dE]-NH2; thioether N-12), the IC50 came to 0.4 nM and the “Imax: % (at 500 nM)” value turned out to be 101%.

For the compound `CCCC[C@H]1C(=O)NC(C)(C)C(=O)N[C@@H](CC2Cc3ccccc3C2)C(=O)N[C@@H](Cc2ccc(F)cc2)C(=O)N2CCC[C@H]2C(=O)N[C@@H](Cc2ccc(O)cc2)C(=O)N[C@@H](Cc2ccc(O)cc2)C(=O)N[C@@H](Cc2ccc(C(=O)O)cc2)C(=O)N[C@@H](CC2CCNCC2)C(=O)N[C@@H](CC2CCCCC2)C(=O)N[C@H](C(=O)N[C@H](CCC(=O)O)C(N)=O)CSCC(=O)N(C)[C@@H](CCC(=O)O)C(=O)N1C` [Peptide 5555_p201] ({CH2CO}-[NMeE][NMeNle][Aib][Ala(indan-2-yl)][Phe(4-F)]PYY[Phe(4-COOH)][Ala(piperidin-4-yl)][Cha]C[dE]-NH2; thioether N-12), it took 0.7 nM to reach half-maximal inhibition (IC50) and the “Imax: % (at 500 nM)” value is given as 101%.

In the case of `CCCC[C@H]1C(=O)NC(C)(C)C(=O)N[C@@H](CC2CCCCC2)C(=O)N[C@@H](Cc2ccc(F)cc2)C(=O)NC(C)(CO)C(=O)N[C@@H](Cc2ccc(O)cc2)C(=O)N[C@@H](Cc2ccc(O)cc2)C(=O)N[C@@H](Cc2ccc(C(=O)O)cc2)C(=O)N[C@@H](CC2CCNCC2)C(=O)N[C@@H](CC2CCCCC2)C(=O)N[C@H](C(=O)N[C@H](CCC(=O)O)C(N)=O)CSCC(=O)N(C)[C@@H](CCC(=O)O)C(=O)N1C` (stereo partly shown) [Peptide 5555_p203] ({CH2CO}-[NMeE][NMeNle][Aib][Cha][Phe(4-F)][ξαMeS]YY[Phe(4-COOH)][Ala(piperidin-4-yl)][Cha]C[dE]-NH2; thioether N-12), the IC50 amounted to 0.5 nM and the “Imax: % (at 500 nM)” value amounted to 101%.

For the compound `CCCC[C@H]1C(=O)NC(C)(C)C(=O)N[C@@H](CC2Cc3ccccc3C2)C(=O)N[C@@H](Cc2ccc(F)cc2)C(=O)N(C)CC(=O)N[C@@H](Cc2ccc(O)cc2)C(=O)N[C@@H](Cc2ccc(O)cc2)C(=O)N[C@@H](CCCNC(N)=O)C(=O)N[C@H](CCCCN)C(=O)N[C@@H](CC2CCCCC2)C(=O)N[C@H](C(=O)N[C@H](CCC(=O)O)C(N)=O)CSCC(=O)N(C)[C@@H](CCC(=O)O)C(=O)N1C` [Peptide 5555_p213] ({CH2CO}-[NMeE][NMeNle][Aib][Ala(indan-2-yl)][Phe(4-F)][Sar]YY[Cit][dK][Cha]C[dE]-NH2; thioether N-12), half-maximal inhibition (IC50) required 0.6 nM and the “Imax: % (at 500 nM)” value is reported as 101%.

As for `CCCC[C@H]1C(=O)NC(C)(C)C(=O)N[C@@H](CC2Cc3ccccc3C2)C(=O)N[C@@H](Cc2ccc(F)cc2)C(=O)N2CCC[C@H]2C(=O)N[C@@H](Cc2ccc(O)cc2)C(=O)N[C@@H](Cc2ccc(O)cc2)C(=O)N[C@@H](CCCNC(N)=O)C(=O)N[C@H](CCCCN)C(=O)N[C@@H](CC2CCCCC2)C(=O)N[C@H](C(=O)N[C@H](CCC(=O)O)C(N)=O)CSCC(=O)N(C)[C@@H](CCC(=O)O)C(=O)N1C` [Peptide 5555_p216] ({CH2CO}-[NMeE][NMeNle][Aib][Ala(indan-2-yl)][Phe(4-F)]PYY[Cit][dK][Cha]C[dE]-NH2; thioether N-12), the IC50 was determined as 0.4 nM and the “Imax: % (at 500 nM)” value came to 102%.

`CCCC[C@H]1C(=O)NC(C)(C)C(=O)N[C@@H](CC2CCCCC2)C(=O)N[C@@H](Cc2ccc(F)cc2)C(=O)NC(C)(CO)C(=O)N[C@@H](Cc2ccc(O)cc2)C(=O)N[C@@H](Cc2ccc(O)cc2)C(=O)N[C@@H](CCCNC(N)=O)C(=O)N[C@H](CCCCN)C(=O)N[C@@H](CC2CCCCC2)C(=O)N[C@H](C(=O)N[C@H](CCC(=O)O)C(N)=O)CSCC(=O)N(C)[C@@H](CCC(=O)O)C(=O)N1C` (stereo partly shown) [Peptide 5555_p218] ({CH2CO}-[NMeE][NMeNle][Aib][Cha][Phe(4-F)][ξαMeS]YY[Cit][dK][Cha]C[dE]-NH2; thioether N-12): the IC50 worked out at 0.3 nM and the “Imax: % (at 500 nM)” value was found to be 101%.

(Values after patent US20240209027A1, “PEPTIDE AND PEPTIDE-CONTAINING COMPOSITION” (PeptiAID Inc.,, priority 2021, published 2024).)
